Earlier results, collected in patent publication US20130084245A1, “PET MONITORING OF A-BETA-DIRECTED IMMUNOTHERAPY” (Wyeth LLC, priority 2010, published 2013).

Columns and labels:
[1] = molecular target: T1, Aβ deposits (Homo sapiens, UniProt P05067); settings: preliminary study
T1 construct: aggregated fibrillar deposits of the Aβ peptide

[2] = molecular target: T2, aggregated fibrillar deposits of the Aβ peptide (Homo sapiens, UniProt P05067)
T2 construct: aggregated fibrillar deposits of the Aβ peptide
T2 sequence (P05067 672-713 limits assumed): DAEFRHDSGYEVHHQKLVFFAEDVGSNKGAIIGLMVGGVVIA

[3] = molecular target: T1, Aβ deposits; settings: areas of brain association cortex targeted by Aβ deposits

T1 sequence (P05067 672-713 limits assumed): as above

SMILES	Performance as PET ligand in AD and controls [1]	Affinity for aggregated fibrillar deposits of the Aβ peptide [2]	Selectivity of binding to postmortem human brain ([2]; low nanomolar concentrations typically used in PET studies)	Retention in AD patients compared with controls [3]
CNc1ccc(/C=C/c2ccc(OCCOCCOCC[18F])cc2)cc1 [^18F-BAY94-9172]	performed comparably to ^11C-PIB	–	–	–
CNc1ccc(-c2nc3ccc(O)cc3s2)cc1 [PiB, 2-(4′-methylaminophenyl)-6-hydroxybenzothiazole]	–	low nanomolar affinity	selective for fibrillar Aβ deposits	approximately two-fold
